Measurements taken from the supplement of paper PMC10307832.

How the values were obtained:
Assay in all cases: relative viability (nuclei count vs DMSO), 5 days (fraction); higher = more cells survive
[1] = compound: C1CC(C1)(C(=O)O)C(=O)O.[NH2-].[NH2-].[Pt+2] [Carboplatin] + CC(=O)c1c(C)c2cnc(Nc3ccc(N4CCNCC4)cn3)nc2n(C2CCCC2)c1=O [Palbociclib] (partner 0.5 µM)
Procedure, shortened: (§1)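 Five library-drug doses in √10 steps were combined with a fixed anchor-drug dose, or a single drug was given alone, by pin tool to lung cancer cell lines in 1536-well plates the day after seeding. Nuclei were stained and counted after 5 days. Relative viability is the nuclei count in treated wells over that in vehicle wells, taken as the median of duplicate plates.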

MLN4924 + OSI-027 = compound: NS(=O)(=O)OC[C@@H]1C[C@@H](n2ccc3c(N[C@H]4CCc5ccccc54)ncnc32)C[C@@H]1O [MLN4924] + COc1cccc2cc(-c3nc([C@H]4CC[C@H](C(=O)O)CC4)n4ncnc(N)c34)[nH]c12 [OSI-027] (partner 0.5 µM)
Procedure, shortened: as §1

Carboplatin + Bortezomib = compound: C1CC(C1)(C(=O)O)C(=O)O.[NH2-].[NH2-].[Pt+2] [Carboplatin] + CC(C)C[C@H](NC(=O)[C@H](Cc1ccccc1)NC(=O)c1cnccn1)B(O)O [Bortezomib] (partner 0.002 µM)
Procedure, shortened: as §1

GSK126 + Linsitinib = compound: CC[C@H](C)N1C=C(C2=C(C=C(C=C21)C3=CN=C(C=C3)N4CCNCC4)C(=O)NCC5=C(C=C(NC5=O)C)C)C [GSK126] + C[C@]1(O)C[C@@H](c2nc(-c3ccc4ccc(-c5ccccc5)nc4c3)c3c(N)nccn32)C1 [Linsitinib] (partner 1 µM)
Procedure, shortened: as §1

Cell Line	relative viability ([1]; first compound 0.08 µM)	relative viability ([1]; first compound 0.253 µM)	relative viability ([1]; first compound 0.8 µM)	relative viability ([1]; first compound 2.53 µM)	relative viability ([1]; first compound 8 µM)	relative viability (MLN4924 + OSI-027; first compound 0.04 µM)	relative viability (MLN4924 + OSI-027; first compound 0.1265 µM)	relative viability (MLN4924 + OSI-027; first compound 0.4 µM)	relative viability (MLN4924 + OSI-027; first compound 1.265 µM)	relative viability (MLN4924 + OSI-027; first compound 4 µM)	relative viability (Carboplatin + Bortezomib; first compound 0.08 µM)	relative viability (Carboplatin + Bortezomib; first compound 0.253 µM)	relative viability (Carboplatin + Bortezomib; first compound 0.8 µM)	relative viability (Carboplatin + Bortezomib; first compound 2.53 µM)	relative viability (Carboplatin + Bortezomib; first compound 8 µM)	relative viability (GSK126 + Linsitinib; first compound 0.08 µM)	relative viability (GSK126 + Linsitinib; first compound 0.253 µM)	relative viability (GSK126 + Linsitinib; first compound 0.8 µM)	relative viability (GSK126 + Linsitinib; first compound 2.53 µM)	relative viability (GSK126 + Linsitinib; first compound 8 µM)
201T	0.374	0.356	0.37	0.336	0.362	0.824	0.857	0.46	0.139	0.115	1.18	1.11	1.13	1.14	1.06	1.04	1.11	1.06	1.07	1.18
A549																0.687	0.524	0.541	0.594	0.58
A-427	0.585	0.509	0.542	0.484	0.488	0.356	0.239	0.214	0.173	0.171	0.984	1.11	0.904	0.905	1.01	1.19	1.19	1.09	1.17	1.11
ABC-1	0.976	0.805	0.886	0.651	0.504	0.7	0.511	0.323	0.196	0.248	0.291	0.442	0.354	0.355	0.335	0.83	1.03	0.67	0.703	0.755
BEN	0.467	0.442	0.488	0.44	0.494	0.318	0.308	0.228	0.218	0.195	0.837	0.889	0.988	0.898	0.782	1.19	0.953	0.813	0.893	0.653
CAL-12T	0.402	0.514	0.506	0.483	0.406	0.619	0.593	0.283	0.184	0.113	1.28	0.826	0.972	1.07	0.911	0.964	0.94	0.78	0.918	0.868
COR-L23	0.32	0.303	0.226	0.196	0.123	0.718	0.602	0.555	0.199	0.119	0.887	0.987	0.918	0.707	0.355	1.06	1.12	0.918	0.912	0.99
COR-L 105	0.442	0.427	0.384	0.379	0.414	0.721	0.617	0.511	0.238	0.311	0.89	0.745	0.832	0.794	0.424	1.01	1.06	0.729	0.997	0.858
Calu-6											0.927	0.974	0.925	0.823	0.496	1.14	0.97		0.989	1.07
ChaGo-K-1	0.913	0.937	0.837	0.749	0.535	0.461	0.35	0.272	0.181	0.176	1.08	0.837	0.916	0.786	0.406					
EBC-1											0.528	0.507	0.551	0.518	0.438	1.07	1.02	1	0.74	0.909
EKVX	0.364	0.513	0.385	0.354	0.341	0.71	0.712	0.622	0.214	0.175	1.06	1.13	1.01	1.06	0.976	1.04	1.12	0.918	1.01	0.885
EMC-BAC-2	0.533	0.516	0.525	0.536	0.469	0.383	0.36	0.197	0.194	0.243	1.14	1.02	1.13	1.05	0.957	0.798	0.841	0.771	0.824	0.839
EPLC-272H	0.352	0.325	0.32	0.327	0.359	0.291	0.265	0.0696	0.13	0.136	0.86	1.1	0.972	1.01	0.877	1.4	1.16	1.06	1.17	1.23
H3255	0.303	0.303	0.308	0.275	0.306	0.578	0.472	0.373	0.256	0.291	0.832	0.762	0.874	0.865	0.526	0.99	0.96	0.945	0.893	0.874
HARA	0.311	0.344	0.204	0.225	0.308	0.465	0.361	0.271	0.0502	0.0686	1.06	1.13	1.09	1.01	0.939	1.01	0.898	0.872	0.976	0.836
HCC-15	0.751	0.721	0.702	0.615	0.575	0.347	0.197	0.139	0.0813	0.0848	1.1	1.05	0.999	0.914	0.795	0.927	0.683	0.891	0.957	0.827
HCC-44	0.994	0.975	1	0.859	0.89	0.423	0.263	0.171	0.216	0.233	0.968	0.882	0.833	0.864	0.785	0.681	0.692	0.659	0.7	0.715
HCC-78	0.446	0.495	0.491	0.464	0.433	0.416	0.349	0.399	0.27	0.236	0.561	0.502	0.383	0.497	0.508	0.662	0.547	0.518	0.465	0.47
HCC-366	0.484	0.401	0.339	0.233	0.152	1.02	0.895	1.08	0.396	0.0921	1.08	1.05	1.09	0.957	0.685	0.684	0.634	0.602	0.678	0.846

Cell Line	relative viability ([1]; first compound 0.08 µM)	relative viability ([1]; first compound 0.253 µM)	relative viability ([1]; first compound 0.8 µM)	relative viability ([1]; first compound 2.53 µM)	relative viability ([1]; first compound 8 µM)	relative viability (MLN4924 + OSI-027; first compound 0.04 µM)	relative viability (MLN4924 + OSI-027; first compound 0.1265 µM)	relative viability (MLN4924 + OSI-027; first compound 0.4 µM)	relative viability (MLN4924 + OSI-027; first compound 1.265 µM)	relative viability (MLN4924 + OSI-027; first compound 4 µM)	relative viability (Carboplatin + Bortezomib; first compound 0.08 µM)	relative viability (Carboplatin + Bortezomib; first compound 0.253 µM)	relative viability (Carboplatin + Bortezomib; first compound 0.8 µM)	relative viability (Carboplatin + Bortezomib; first compound 2.53 µM)	relative viability (Carboplatin + Bortezomib; first compound 8 µM)	relative viability (GSK126 + Linsitinib; first compound 0.08 µM)	relative viability (GSK126 + Linsitinib; first compound 0.253 µM)	relative viability (GSK126 + Linsitinib; first compound 0.8 µM)	relative viability (GSK126 + Linsitinib; first compound 2.53 µM)	relative viability (GSK126 + Linsitinib; first compound 8 µM)
HCC-827	0.479	0.38	0.499	0.44	0.469	0.794	0.558	0.686	0.151	0.159	1.18	1.09	1.09	1.02	0.991	1.03	0.965	0.948	0.875	0.964
HOP-62	0.441	0.431	0.462	0.409	0.383	0.73	0.565	0.337	0.0849	0.132	0.922	0.87	0.593	0.668	0.603	1.05	0.979	0.856	0.926	0.899
IA-LM											0.804	0.836	0.633	0.792	0.535	0.685	0.729	0.737	0.365	0.614
LK-2	0.619	0.824	0.796	0.789	0.658	0.214	0.214	0.191	0.202	0.17						0.397	0.485	0.626	0.944	0.352
NCI-H358	0.141	0.148	0.144	0.149	0.183	0.968	0.649	0.492	0.0759	0.118						0.939	0.768	0.785	0.675	0.738
NCI-H522	0.897	1.35	1	0.965	0.825	0.666	0.64	0.398	0.317	0.465										
NCI-H596						0.669	0.87		0.765	0.596	1.21	1.27	0.989	0.886	0.73	1.02	0.99	1.03	1.16	1.15
NCI-H1299											1.07	1.01	1.07	0.982	0.902	0.986	0.998	1	0.93	0.964
NCI-H1395	0.703	0.679	0.547	0.487	0.535	0.641	0.606	0.602	0.349	0.39						1.26	1.01	0.991	0.998	1.08
NCI-H1563						0.981	1.04	0.74	0.526	0.524	1.02	0.886	0.937	0.876	0.77	1.2	1.11	1.16	1.12	1.26
NCI-H1623						0.404	0.421	0.404	0.333	0.314										
NCI-H1648	0.239	0.291	0.264	0.302	0.3	0.246	0.235	0.21	0.205	0.228										
NCI-H1650	0.321	0.341	0.359	0.349	0.251	0.564	0.379	0.184	0.102	0.17	0.221	0.195	0.193	0.198	0.178					
NCI-H1703											0.494	0.503	0.347	0.425	0.34	1.25	0.708	0.852	0.82	1.5
NCI-H1793	0.364	0.365	0.31	0.325	0.365	0.293	0.26	0.303	0.243	0.261						1.04	0.777	0.748	0.982	0.82
NCI-H1944	0.335	0.359	0.332	0.332	0.272	0.502	0.453	0.313	0.161	0.185						1.48	1.18	1.15	1.22	1.33
NCI-H2170	0.39	0.411	0.384	0.379	0.342	0.694	0.601	0.27	0.178	0.255										
NCI-H2342	0.514	0.483	0.482	0.531	0.526	0.586	0.779	0.532	0.594	0.547										
SK-MES-1	0.354	0.298	0.316	0.329	0.315	0.678	0.585	0.266	0.133	0.16						1.12	1.07	0.985	0.981	1.06
SW 900	0.548	0.622	0.572	0.393	0.505	0.266	0.412	0.217	0.0913	0.152										
